A short description of one series: Solubility in water. The format is physicochemical.
The nature of series [1]: Solid state / storage stability. The format is physicochemical. From the text:
The stability of omeprazole sodium form A obtained by the processes of the present invention may be determined by standard protocol for characterisation of stability of a pharmaceutically active substance (EU: Adopted by CPMP, March 2003, issued as CPMP/ICH/2736/99—“Committee for proprietary medical products; Note for Guidance on ICH Q1A (R2) Stability testing guidelines: Stability testing of new drug substances and products”). Packed omeprazole sodium form A was aged for a definite period of time (1 month, 3 months, 6 months) under accelerated conditions of aging (at a temperature of 40° C. and 75% relative humidity which is a standard accelerated condition for stability testing of pharmaceutical formulations) and/or stress condition of aging (at a temperature of 60° C. which is a standard stress condition for stability testing of pharmaceutically active substances). Determination of absorbance measured according to the PhEur method (PhEur 3 Suppl 2000) was used as a criterion for evaluation of the sample quality during stability testing. It has previously been shown that measurement of absorbance is a more sensitive method for monitoring the process of omeprazole sodium decomposition than, for example, detection of present impurities using chromatographic methods (PhEur 3 Suppl 2000).

For series [2] the following is noted: prior art description (US 6,207,188, US 2004/0224987); cited from earlier work.
For series [3] the following is noted: prior art description (EP-B-124 495, US 6,207,188, US 2004/0224987); cited from earlier work.

The values below come from patent US8247566B2, “Crystalline solvate of omeprazole sodium” (Lek Pharmaceuticals d.d., priority 2005, dated 2012).

On to `COc1ccc2[n-]c([S+]([O-])Cc3ncc(C)c(OC)c3C)nc2c1.[Na+]` (centres unmarked) [omeprazole sodium form A, omeprazole sodium], for which, in the series “Solubility in water”, the solubility in water entry is given as “highly soluble in water”. Besides, in series [1], the “stability on storage (chemical composition, hygroscopicity, solubility, crystalline form)” value is on record as “stable”.

With `COc1ccc2[n-]c([S+]([O-])Cc3ncc(C)c(OC)c3C)nc2c1.O.[Na+]` (centres unmarked) [omeprazole sodium form B, omeprazole sodium monohydrate salt], the “thermodynamic stability as described in prior art” value in series [2] is recorded as “thermodynamically stable”. Moreover, in series [3], the “hygroscopicity as described in prior art” value is “non-hygroscopic”.

On to `COc1ccc2[n-]c([S+]([O-])Cc3ncc(C)c(OC)c3C)nc2c1.[Na+]` (centres unmarked) [omeprazole sodium form E, omeprazole sodium], for which, in series [1] (stored under nitrogen atmosphere), the “stability under special conditions” value was “stable compounds under special conditions”.
